Source: patent US10463644B2, “Uses of sesquiterpene lactone compounds and their derivatives in drugs preparation” (ACCENDATECH, priority 2013, dated 2019)
Read-outs that look alike come from different tables or passages of the source.

Legend:
cancer cells = experiment: Survival rate of cancer cells after test compound is added (flow cytometry, Annexin V-FITC/PI, clinical specimen); type: cell-based, patient; details: Homo sapiens, 18 h, read-out: Survival rate (%) All cells (Stem cells and ordinary cells)
Text: (§1) Take fresh or cryopreserved clinical specimen (acute myelogenous leukemia (AML, marker is CD34^+/CD38^+), chronic myelogenous leukemia (CML, Ph+/CD34+/CXCR4+), chronic lymphocytic leukemia (CLL,CD133+/CD19−/CD38−), skin cancer (CD34+), breast cancer (CD44+/CD24−/ESA+), ovarian cancer (CD44+/CD117+), brain tumor (CD133+) prostate cancer (CD44+/CD24−), head-neck squamous cell carcinoma (CD44+), laryngeal cancer (CD133+), pancreatic cancer (ESA+/CD44+/CD24+), retinoblastoma (ABCG2/ALDH1), Children hepatoblastoma (CD34+/THY1+/c-kit+), liver cancer (CD133+), malignant melanoma (CD133+), colorectal cancer (EpCAM^high/CD44+), colon adenocarcinoma (CD44^high), glioma (ABCG-2/BCRP1), gastrointestinal tumor (ABCG-2/BCRP1), nasopharynx cancer (ABCG2), brain glioma (Dlk-1/Pref-1), gastric cancer (CD45+), lung adenocarcinoma (Sca-1/CD45-/Pecam-/CD34+), lung cancer (CD133+CD34+CD44+)) of patient. Take the acute myelogenous leukemia as the example, conduct density gradient centrifugation with Ficoll and take out the middle mononuclear cells, re-suspend it with serum-free IMDM after centrifuged. Adjust the concentration of cells into 1×10^6/mL and lay 24-well plate with 1 mL in each well, and then treat 18 hours with the compound to select with corresponding concentration. Collect the cells and centrifuge them at 1500 rps for 8 minutes, re-suspend the precipitation with […], mark the antibodies related to leukemia stem cell, avoid light to incubate 30 minutes at room temperature and then centrifuge it at 1500 rps, then wash away the unbound antibody CD34^+CD38^+. Re-suspend it with 100 μl 1× Binding Buffer and add respectively 5 μl Annexin V-FITC and PI, then avoid light to incubate 15 minutes before add 200 μl 1× Binding Buffer, then use flow cytometry to examine the marked apoptosis within one hour.

normal cells = experiment: Survival rate of normal cells after test compound is added (flow cytometry, Annexin V-FITC/PI); type: cell-based; details: 18 h
Text: as §1

cancer stem cells = experiment: Survival rate of cancer stem cells after test compound is added (flow cytometry, Annexin V-FITC/PI, clinical specimen); type: cell-based, patient; details: Homo sapiens, 18 h
Text: as §1

[1] = test system: PGE2 secreted by synoviocyte; experiment: Content of PGE2 in culture supernatant of synoviocyte of RA model rats given test compound; type: in vivo; details: rat RA model, dose 30 mg/kg.2d; normal control 8.34 ± 1.29, NaCl 32.44 ± 10.32
Text: (§2) Take Compound 1-50 prepared as per the method according to the present invention and employ the method provided in Reference to prepare model, group drugs and prepare culture supernatant of rat synoviocyte.
(§3) Employ the method provided in Reference to investigate the effects of the test compounds on the synoviocyte to secrete TNF-α and PGE2. Employ the method provided in Reference to investigate the effects of the test compounds on the synoviocyte to secrete IL-1β.
(§4) The experimental data of the test compound 1-50 at a dose of 30 mg/kg.2d as well as the normal control and NaCl group are as follows: […]

[2] = test system: IL-1β secreted by synoviocyte; experiment: Content of IL-1β in culture supernatant of synoviocyte of RA model rats given test compound; type: in vivo; details: rat RA model, dose 30 mg/kg.2d; normal control 0.16 ± 0.034, NaCl 0.49 ± 0.136
Text: as §2, §3, §4

[3] = Head and neck squamous cell carcinomas
[4] = read-out: Survival rate (%) All cells (Stem cells and ordinary cells)
[5] = read-out: Survival rate (%) Stem cells

## C=C1C(=O)O[C@H]2[C@H]1CC[C@]1(C)O[C@@]13CC[C@@](C)(O)[C@H]23 [Compound 24]
Cancer cells; AML
  viability at 10 µM: 59%
  viability at 20 µM: 48%
Cancer cells; Brain glioma
  viability at 10 µM: 65%
  viability at 20 µM: 53%
Cancer cells; Brain tumor
  viability at 10 µM: 74%
  viability at 20 µM: 69%
Cancer cells; Breast cancer
  viability at 10 µM: 77%
  viability at 20 µM: 58%
Cancer cells; CLL
  viability at 10 µM: 67%
  viability at 20 µM: 48%
Cancer cells; CML
  viability at 10 µM: 69%
  viability at 20 µM: 51%
Cancer cells; Children hepatoblastoma
  viability at 10 µM: 75%
  viability at 20 µM: 68%
Cancer cells; Colon adenocarcinoma
  viability at 10 µM: 66%
  viability at 20 µM: 57%
Cancer cells; Colorectal cancer
  viability at 10 µM: 78%
  viability at 20 µM: 67%
Cancer cells; Gastric cancer
  viability at 10 µM: 66%
  viability at 20 µM: 48%
Cancer cells; Gastrointestinal tumor
  viability at 10 µM: 72%
  viability at 20 µM: 62%
Cancer cells; Glioma
  viability at 10 µM: 78%
  viability at 20 µM: 74%
Cancer cells; [3]
  viability at 10 µM: 76%
  viability at 20 µM: 68%
Cancer cells; Laryngeal cancer
  viability at 10 µM: 75%
  viability at 20 µM: 66%
Cancer cells; Liver cancer
  viability at 10 µM: 82%
  viability at 20 µM: 72%
Cancer cells; Lung adenocarcinoma
  viability at 10 µM: 78%
  viability at 20 µM: 64%
Cancer cells; Lung cancer
  viability at 10 µM: 72%
  viability at 20 µM: 66%
Cancer cells; Malignant melanoma
  viability at 10 µM: 88%
  viability at 20 µM: 86%
Cancer cells; Nasopharynx cancer
  viability at 10 µM: 64%
  viability at 20 µM: 59%
Cancer cells; Ovarian cancer
  viability at 10 µM: 68%
  viability at 20 µM: 61%
Cancer cells; Pancreatic cancer
  viability at 10 µM: 68%
  viability at 20 µM: 62%
Cancer cells; Prostate cancer
  viability at 10 µM: 75%
  viability at 20 µM: 62%
Cancer cells; Retinoblastoma
  viability at 10 µM: 82%
  viability at 20 µM: 69%
Cancer cells; Skin cancer
  viability at 10 µM: 62%
  viability at 20 µM: 47%
Normal cells; [4]
  viability at 10 µM: 93%
  viability at 20 µM: 92%
Normal cells; [5]
  viability at 10 µM: 92%
  viability at 20 µM: 90%
Cancer stem cells; AML
  viability at 10 µM: 48%
  viability at 20 µM: 39%
Cancer stem cells; Brain glioma
  viability at 10 µM: 52%
  viability at 20 µM: 42%
Cancer stem cells; Brain tumor
  viability at 10 µM: 66%
  viability at 20 µM: 54%
Cancer stem cells; Breast cancer
  viability at 10 µM: 54%
  viability at 20 µM: 47%
Cancer stem cells; CLL
  viability at 10 µM: 48%
  viability at 20 µM: 39%
Cancer stem cells; CML
  viability at 10 µM: 51%
  viability at 20 µM: 46%
Cancer stem cells; Children hepatoblastoma
  viability at 10 µM: 67%
  viability at 20 µM: 57%
Cancer stem cells; Colon adenocarcinoma
  viability at 10 µM: 58%
  viability at 20 µM: 49%
Cancer stem cells; Colorectal cancer
  viability at 10 µM: 66%
  viability at 20 µM: 55%
Cancer stem cells; Gastric cancer
  viability at 10 µM: 51%
  viability at 20 µM: 39%
Cancer stem cells; Gastrointestinal tumor
  viability at 10 µM: 56%
  viability at 20 µM: 51%
Cancer stem cells; Glioma
  viability at 10 µM: 69%
  viability at 20 µM: 60%
Cancer stem cells; [3]
  viability at 10 µM: 64%
  viability at 20 µM: 57%
Cancer stem cells; Laryngeal cancer
  viability at 10 µM: 65%
  viability at 20 µM: 55%
Cancer stem cells; Liver cancer
  viability at 10 µM: 74%
  viability at 20 µM: 61%
Cancer stem cells; Lung adenocarcinoma
  viability at 10 µM: 68%
  viability at 20 µM: 55%
Cancer stem cells; Lung cancer
  viability at 10 µM: 61%
  viability at 20 µM: 54%
Cancer stem cells; Malignant melanoma
  viability at 10 µM: 81%
  viability at 20 µM: 76%
Cancer stem cells; Nasopharynx cancer
  viability at 10 µM: 57%
  viability at 20 µM: 48%
Cancer stem cells; Ovarian cancer
  viability at 10 µM: 57%
  viability at 20 µM: 45%
Cancer stem cells; Pancreatic cancer
  viability at 10 µM: 55%
  viability at 20 µM: 49%
Cancer stem cells; Prostate cancer
  viability at 10 µM: 61%
  viability at 20 µM: 51%
Cancer stem cells; Retinoblastoma
  viability at 10 µM: 62%
  viability at 20 µM: 54%
Cancer stem cells; Skin cancer
  viability at 10 µM: 46%
  viability at 20 µM: 39%
[1]
  Content of PGE2 in culture supernatant of synoviocyte (x ± s): 23.63 ± 1.35 ng/mL
[2]
  Content of IL-1β in culture supernatant of synoviocyte (x ± s): 0.37 ± 0.051 ng/mL
